Results on 77 sequences are retold here after the OligoGym collection.

The data set has as its target SNHG14. To be noted: ASO.

After the bases stand the sugars from the 5' end (letter, count) and the backbone: PS all phosphorothioate, else s phosphorothioate and o phosphodiester by linkage. Methylation of C is not given here. l = locked nucleic acid (LNA); d = 2'-deoxy (DNA)

In the case of “TACCTACATCTCATACTT (sugars l2 d14 l2, PS)”, the target mRNA inhibition runs as follows: (Human Neuronal Cell, 0.2 µM) -10%; (Human Neuronal Cell, 1 µM) 11%; (Human Neuronal Cell, 5 µM) 6%.

In the case of “TACTAAACATACACATA (sugars l4 d11 l2, PS)”, the target mRNA inhibition stood at 9% (Human Neuronal Cell, 0.2 µM) and 25% (Human Neuronal Cell, 1 µM). Take TACTATACTTTCCTCT (sugars l2 d10 l4, PS): the target mRNA inhibition came out at 59% (Human Neuronal Cell, 0.2 µM) and 60% (Human Neuronal Cell, 1 µM). In the case of “TACTCTGCAATACACC (sugars l1 d3 l1 d9 l2, PS)”, the target mRNA inhibition (Human Neuronal Cell, 7.5 µM) is 52%. Consider “TACTCTGCAATACACCA (sugars l1 d2 l2 d10 l2, PS)”, for which the target mRNA inhibition (Human Neuronal Cell, 7.5 µM) came to 56%. Still for that read-out and setting: under “TACTCTGCAATACACCA (sugars l1 d13 l3, PS)” stands 60%; under “TATACCTTTCTTTAACCCTT (sugars l2 d4 l1 d11 l2, PS)”, 51%. On to “TATACCTTTCTTTAACCCTT (sugars llddldldddddddddddll, PS)”, for which the target mRNA inhibition (Human Neuronal Cell, 7.5 µM) was determined as 60%.

With “TATCTTTCCATTTATTTCCA (sugars l1 d17 l2, PS)”, the target mRNA inhibition (Human Neuronal Cell, 7.5 µM) is -7%. With TATTCTTACCGTCTTT (sugars l2 d10 l4, PS), the target mRNA inhibition (Human Neuronal Cell, 0.2 µM) is 60% and the target mRNA inhibition (Human Neuronal Cell, 1 µM) amounted to 68%.

With TATTGATTCAATTCCC (sugars l3 d10 l3, PS), the target mRNA inhibition is, setting by setting: (Human Neuronal Cell, 0.2 µM) 62%; (Human Neuronal Cell, 1 µM) 68%.

Regarding “TATTGATTCAATTCCCT (sugars ldddlddddddllldll, PS)”, the target mRNA inhibition (Human Neuronal Cell, 7.5 µM) was determined as 10%. “TATTGATTCAATTCCCT (sugars lddldddddddddldll, PS)”: the target mRNA inhibition (Human Neuronal Cell, 7.5 µM) is 51%.

As to “TATTGATTCAATTCCCT (sugars ldldlddddddddldll, PS)”, under “Human Neuronal Cell, 7.5 µM”, the target mRNA inhibition worked out at 60%.

As for “TATTTATACACCATCAT (sugars l3 d11 l3, PS)”, the target mRNA inhibition was 59% (Human Neuronal Cell, 0.2 µM) and 63% (Human Neuronal Cell, 1 µM).

Consider TCACTGCCATCAATAC (sugars l4 d10 l2, PS), for which the target mRNA inhibition reads like this: (Human Neuronal Cell, 0.2 µM) 42%; (Human Neuronal Cell, 1 µM) 45%. Turning to “TCAGCTTTTAACCAGAGT (sugars l2 d13 l3, PS)”, where the note is “Human Neuronal Cell, 7.5 µM”, the target mRNA inhibition was 79%. The same measure, in the same setting: under “TCAGCTTTTAACCAGAGTG (sugars l2 d14 l3, PS)” stands 76%. In the case of “TCAGCTTTTAACCAGAGTGG (sugars l2 d16 l2, PS)”, the target mRNA inhibition (Human Neuronal Cell, 7.5 µM) came to 70%. Regarding TCATACTTGCTTTAAT (sugars l4 d10 l2, PS), the target mRNA inhibition reads like this: (Human Neuronal Cell, 0.2 µM) 13%; (Human Neuronal Cell, 1 µM) 38%. For “TCATTTCATATTACTAAC (sugars l4 d12 l2, PS)”, the target mRNA inhibition by setting is: (Human Neuronal Cell, 0.2 µM) 13%; (Human Neuronal Cell, 1 µM) 32%.

For the sequence TCCAGCATATTATATA (sugars l4 d10 l2, PS), the target mRNA inhibition is, setting by setting: (Human Neuronal Cell, 0.2 µM) 24%; (Human Neuronal Cell, 1 µM) 10%. For “TCCTATATTCTCTTAAA (sugars l4 d11 l2, PS)”, the target mRNA inhibition (Human Neuronal Cell, 0.2 µM) was determined as 47% and the target mRNA inhibition (Human Neuronal Cell, 1 µM) was found to be 66%.

On to “TCTCTACAACAGTCCCA (sugars l2 d13 l2, PS)”, for which the target mRNA inhibition amounted to 44% (Human Neuronal Cell, 0.2 µM) and 55% (Human Neuronal Cell, 1 µM). For the sequence “TCTGTATACACCATCCC (sugars l2 d1 l1 d11 l2, PS)”, the target mRNA inhibition (Human Neuronal Cell, 7.5 µM) turned out to be 56%. On to “TCTTACCAATAGTTACC (sugars l4 d11 l2, PS)”, for which the target mRNA inhibition (Human Neuronal Cell, 0.2 µM) came to 45% and the target mRNA inhibition (Human Neuronal Cell, 1 µM) came to 55%. Consider “TCTTACTCTGACTTTCC (sugars l2 d12 l3, PS)”, for which the target mRNA inhibition (Human Neuronal Cell, 0.2 µM) turned out to be 68% and the target mRNA inhibition (Human Neuronal Cell, 1 µM) came to 71%. As to “TCTTTCCATTTATTTCCAT (sugars l2 d14 l3, PS)”, the target mRNA inhibition (Human Neuronal Cell, 7.5 µM) amounted to 43%. The same measure, in the same setting: in the case of “TCTTTCCATTTATTTCCAT (sugars lddldldddddddldldll, PS)” it was 37%; in that of “TCTTTCCATTTATTTCCATT (sugars l2 d13 l1 d1 l3, PS)”, 42%.

As for “TGAAAATCTCAACTACCAT (sugars l4 d12 l3, PS)”, where the note is “Human Neuronal Cell, 7.5 µM”, the target mRNA inhibition turned out to be 49%. On the same count and under the same terms, under “TGAAAATCTCAACTACCAT (sugars lddddlddddddldlldll, PS)” stands 42%; under “TGAAAATCTCAACTACCAT (sugars ldldldddddddldddlll, PS)”, 50%; under “TGAAAATCTCAACTACCAT (sugars llldllddddddlddddll, PS)”, 55%. Take TGAAACTATTACTCCT (sugars l3 d10 l3, PS): the target mRNA inhibition (Human Neuronal Cell, 0.2 µM) is 44% and the target mRNA inhibition (Human Neuronal Cell, 1 µM) amounted to 61%. On to TGACATAACCATATAC (sugars l3 d10 l3, PS), for which the target mRNA inhibition (Human Neuronal Cell, 0.2 µM) amounted to 20% and the target mRNA inhibition (Human Neuronal Cell, 1 µM) is 30%.

For “TGCTACCATCATTACCT (sugars l2 d13 l2, PS)”, the target mRNA inhibition was 12% (Human Neuronal Cell, 0.2 µM) and 19% (Human Neuronal Cell, 1 µM). The matching figures for “TGTACTTTCCTTTACCA (sugars l2 d13 l2, PS)”: 33% and 59%. For “TGTCATCTAACTTCTTA (sugars l4 d11 l2, PS)” the same measures were 45% and 38%. With “TGTTTATACCCTTTCCA (sugars l3 d12 l2, PS)”, the target mRNA inhibition stood at 35% (Human Neuronal Cell, 0.2 µM) and 50% (Human Neuronal Cell, 1 µM). On to “TGTTTATACCCTTTCCAA (sugars lddddlddddddldldll, PS)”, for which the target mRNA inhibition (Human Neuronal Cell, 7.5 µM) stood at 47%. Same read-out and setting: under “TGTTTCCATCTACTATTA (sugars l1 d4 l1 d9 l3, PS)” stands 61%; under “TGTTTCCATCTACTATTA (sugars l1 d4 l1 d10 l2, PS)”, 60%. For “TTACACTTAATTATACTT (sugars l3 d12 l3, PS)”, the target mRNA inhibition (Human Neuronal Cell, 0.2 µM) came to 14% and the target mRNA inhibition (Human Neuronal Cell, 1 µM) was 22%.

With “TTACACTTAATTATACTTCC (sugars l1 d5 l1 d9 l4, PS)”, the target mRNA inhibition (Human Neuronal Cell, 7.5 µM) amounted to 61%. Still for that read-out and setting: in the case of “TTACACTTAATTATACTTCC (sugars l3 d1 l1 d12 l3, PS)” it was 70%. On the same count and under the same terms, under “TTACACTTAATTATACTTCC (sugars ldldddlddddddddlddll, PS)” stands 64%. For the sequence TTACCAATAGTTACCT (sugars l3 d10 l3, PS), the target mRNA inhibition runs as follows: (Human Neuronal Cell, 0.2 µM) 33%; (Human Neuronal Cell, 1 µM) 48%.

“TTACCTACATCTCATAC (sugars l3 d11 l3, PS)”: the target mRNA inhibition by setting is: (Human Neuronal Cell, 0.2 µM) 0%; (Human Neuronal Cell, 1 µM) 5%; (Human Neuronal Cell, 5 µM) 21%; (Mouse Primary Neuronal Cell, 0.005 µM) 91.3%. As for TTACTCTTAGCAACCT (sugars l4 d10 l2, PS), the target mRNA inhibition (Human Neuronal Cell, 0.2 µM) turned out to be 58% and the target mRNA inhibition (Human Neuronal Cell, 1 µM) came out at 54%. The matching figures for TTATACCCTTTCCAAT (sugars l2 d10 l4, PS): 40% and 60%. As for “TTATACCTTTCTTTAACCCT (sugars ldddldddddddddddldll, PS)”, under “Human Neuronal Cell, 7.5 µM”, the target mRNA inhibition was determined as 57%.

Turning to “TTATAGCCATTCTATCT (sugars l1 d10 l2 d2 l2, PS)”, the target mRNA inhibition (Human Neuronal Cell, 7.5 µM) was 48%. Still for that read-out and setting: under “TTATAGCCATTCTATCT (sugars l2 d9 l1 d3 l2, PS)” stands 52%; under “TTATAGCCATTCTATCT (sugars l3 d8 l1 d3 l2, PS)”, 58%. Consider “TTATAGCCATTCTATCT (sugars l3 d9 l1 d1 l3, PS)”, for which the target mRNA inhibition (Human Neuronal Cell, 7.5 µM) worked out at 54%. Take “TTATAGCCATTCTATCT (sugars l4 d7 l1 d3 l2, PS)”: under “Human Neuronal Cell, 7.5 µM”, the target mRNA inhibition was found to be 44%. “TTATAGCCATTCTATCT (sugars ldddlddddddldddll, PS)”: the target mRNA inhibition (Human Neuronal Cell, 7.5 µM) stood at 42%. Consider “TTATAGCCATTCTATCT (sugars lddlddddddddlldll, PS)”, for which, under “Human Neuronal Cell, 7.5 µM”, the target mRNA inhibition is 25%.

Turning to “TTATAGCCATTCTATCT (sugars llldlddddddldddll, PS)”, the target mRNA inhibition (Human Neuronal Cell, 7.5 µM) turned out to be 52%. TTATTAACCACCTTAA (sugars l3 d10 l3, PS): the target mRNA inhibition (Human Neuronal Cell, 0.2 µM) came out at 21% and the target mRNA inhibition (Human Neuronal Cell, 1 µM) turned out to be 49%. In the case of “TTCACCTAATAGCACCA (sugars l2 d11 l4, PS)”, the target mRNA inhibition is, setting by setting: (Human Neuronal Cell, 0.2 µM) 54%; (Human Neuronal Cell, 1 µM) 64%. Consider “TTCCATTTATTTCCATTTAT (sugars ldldllddddddddldddll, PS)”, for which the target mRNA inhibition (Human Neuronal Cell, 7.5 µM) worked out at 59%. Consider TTCCCTTTGATAACAT (sugars l4 d10 l2, PS), for which the target mRNA inhibition reads like this: (Human Neuronal Cell, 0.2 µM) 9%; (Human Neuronal Cell, 1 µM) 34%. For “TTCCTCTGCTTATAACT (sugars l3 d12 l2, PS)” the same measures were 50% and 61%.

In the case of “TTCCTTTCATTAACATTT (sugars l4 d12 l2, PS)”, the target mRNA inhibition by setting is: (Human Neuronal Cell, 0.2 µM) 37%; (Human Neuronal Cell, 1 µM) 55%. For the sequence TTCTACTATACTTTCC (sugars l4 d10 l2, PS), the target mRNA inhibition by setting is: (Human Neuronal Cell, 0.2 µM) 55%; (Human Neuronal Cell, 1 µM) 69%.

As for “TTCTACTATACTTTCCTCT (sugars ldddddddddddlddldll, PS)”, the target mRNA inhibition (Human Neuronal Cell, 7.5 µM) was determined as 54%. Still for that read-out and setting: under “TTCTACTATACTTTCCTCT (sugars ldddldddddddldlddll, PS)” stands 58%; under “TTCTGTATACACCATCC (sugars l1 d1 l1 d11 l3, PS)”, 58%. Same read-out and setting: in the case of “TTCTGTATACACCATCC (sugars l1 d3 l1 d9 l3, PS)” it was 64%; in that of “TTCTGTATACACCATCC (sugars l1 d10 l1 d3 l2, PS)”, 51%. “TTCTGTATACACCATCC (sugars l1 d13 l3, PS)”: where the note is “Human Neuronal Cell, 7.5 µM”, the target mRNA inhibition worked out at 59%. Still for that read-out and setting: in the case of “TTCTGTATACACCATCC (sugars l2 d11 l1 d1 l2, PS)” it was 56%; in that of “TTCTGTATACACCATCCC (sugars l1 d12 l1 d2 l2, PS)”, 53%. In the case of “TTCTGTATACACCATCCC (sugars ldddlddddddddlddll, PS)”, the target mRNA inhibition (Human Neuronal Cell, 7.5 µM) amounted to 54%.

Take TTCTTAGTCACACACA (sugars l4 d10 l2, PS): the target mRNA inhibition runs as follows: (Human Neuronal Cell, 0.2 µM) -3%; (Human Neuronal Cell, 1 µM) -43%.
